PubChem BioAssay AID330 (DTP/NCI, 2004)
Where “and” joins values, the source holds several entries; their conditions need not be identical. Equal entries are not always repeated. Inconclusive results and toxic doses are left out. The calls were made as follows: active = survival T/C of 150% or more; inactive = T/C below 125% in these data.

Test system: P388 leukemia ip, CD2F1 mice, survival T/C
Assay: NCI In Vivo Anticancer Drug Screen. Data for tumor model P388 Leukemia (intraperitoneal) in CD2F1 (CDF1) mice
Details: endpoint: median survival time, higher = longer survival
In short: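 Mice carrying the transplanted tumor received test compound or vehicle. Survival was recorded in each group, and the value is the treated-group measurement divided by that of the vehicle-treated control group.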

[1] = dose: 50.0 mg/kg/injection, schedule: Q01DX009 (ip), vehicle: Klucel (hydroxypropylcellulose) (HPC)
[2] = dose: 100.0 mg/kg/injection, schedule: Q01DX009 (ip), vehicle: Klucel (hydroxypropylcellulose) (HPC)
[3] = dose: 200.0 mg/kg/injection, schedule: Q01DX009 (ip), vehicle: Klucel (hydroxypropylcellulose) (HPC)

Measured: T/C

N#Cc1c(-c2ccc(Cl)cc2)c(-c2ccc(Cl)cc2)nn(CCOC(=O)CN)c1=O
active: dose: 50.0 mg/kg/injection, schedule: Q01DX005 (ip), vehicle: distilled water + Tween-80 155 % of control
inactive: dose: 3.13 mg/kg/injection, schedule: Q01DX005 (ip), vehicle: distilled water + Tween-80 99 % of control and 100 % of control | dose: 6.25 mg/kg/injection, schedule: Q01DX005 (ip), vehicle: distilled water + Tween-80 100 % of control and 103 % of control | dose: 12.5 mg/kg/injection, schedule: Q01DX005 (ip), vehicle: distilled water + Tween-80 105 % of control and 115 % of control and 97 % of control | dose: 12.5 mg/kg/injection, schedule: Q04DX002 (ip), vehicle: distilled water + Tween-80 103 % of control | dose: 25.0 mg/kg/injection, schedule: Q01DX005 (ip), vehicle: distilled water + Tween-80 108 % of control and 120 % of control (2×) | dose: 25.0 mg/kg/injection, schedule: Q04DX002 (ip), vehicle: distilled water + Tween-80 111 % of control and 112 % of control | dose: 50.0 mg/kg/injection, schedule: Q01DX005 (ip), vehicle: saline 116 % of control

Cc1ccc(C)[nH]1
inactive: dose: 12.5 mg/kg/injection, schedule: Q01DX001 (ip), vehicle: alcohol 109 % of control | dose: 25.0 mg/kg/injection, schedule: Q01DX001 (ip), vehicle: alcohol 111 % of control | dose: 50.0 mg/kg/injection, schedule: Q01DX001 (ip), vehicle: alcohol 101 % of control and 102 % of control

COc1ccc2sc(C)cc(=O)c2c1
inactive: dose: 50.0 mg/kg/injection, schedule: Q01DX009 (ip), vehicle: saline + Tween-80 + alcohol 106 % of control | dose: 100.0 mg/kg/injection, schedule: Q01DX009 (ip), vehicle: saline + Tween-80 + alcohol 109 % of control | dose: 200.0 mg/kg/injection, schedule: Q01DX009 (ip), vehicle: saline + Tween-80 + alcohol 109 % of control

Clc1cnc(/N=C/c2ccc(/C=N/c3ncc(Cl)cc3Cl)cc2)c(Cl)c1
inactive: dose: 50.0 mg/kg/injection, schedule: Q01DX009 (ip), vehicle: saline 100 % of control | dose: 100.0 mg/kg/injection, schedule: Q01DX009 (ip), vehicle: saline 101 % of control | dose: 200.0 mg/kg/injection, schedule: Q01DX009 (ip), vehicle: saline 102 % of control

CCOC(=O)C1=Nc2ccccc2N=C(C2C(=O)C=C(C)OC2=O)C1 (stereo unspecified)
inactive: dose: 100.0 mg/kg/injection, schedule: Q01DX001 (ip), vehicle: saline 108 % of control | dose: 200.0 mg/kg/injection, schedule: Q01DX001 (ip), vehicle: saline 104 % of control | dose: 400.0 mg/kg/injection, schedule: Q01DX001 (ip), vehicle: saline 103 % of control

COc1cccc2c1C(=O)c1c(O)c3c(c(O)c1C2=O)C[C@@H](C(=O)CO)C[C@@H]3OC1CC(N)C(O)C(C)O1 (stereo partly specified)
inactive: dose: 6.25 mg/kg/injection, schedule: Q04DX003 (ip), vehicle: water 105 % of control | dose: 12.5 mg/kg/injection, schedule: Q04DX003 (ip), vehicle: water 105 % of control | dose: 25.0 mg/kg/injection, schedule: Q04DX003 (ip), vehicle: water 124 % of control

OCCSc1nc2ccc(N=Cc3ccccc3O)cc2s1
inactive: [1] 100 % of control | [2] 100 % of control | [3] 90 % of control

CN(/N=C\c1cc(Cl)cc(Cl)c1O)c1ccccc1[N+](=O)[O-]
inactive: dose: 50.0 mg/kg/injection, schedule: Q01DX005 (ip), vehicle: Klucel (hydroxypropylcellulose) (HPC) 101 % of control | dose: 100.0 mg/kg/injection, schedule: Q01DX005 (ip), vehicle: Klucel (hydroxypropylcellulose) (HPC) 95 % of control | dose: 200.0 mg/kg/injection, schedule: Q01DX005 (ip), vehicle: Klucel (hydroxypropylcellulose) (HPC) 101 % of control

COc1ccc2c3c1OC1C(O)C=CC4C(C2O)N(C)CCC341 (stereo unspecified)
inactive: dose: 50.0 mg/kg/injection, schedule: Q01DX005 (ip), vehicle: saline + Tween-80 + alcohol 100 % of control | dose: 100.0 mg/kg/injection, schedule: Q01DX005 (ip), vehicle: saline + Tween-80 + alcohol 100 % of control | dose: 200.0 mg/kg/injection, schedule: Q01DX005 (ip), vehicle: saline + Tween-80 + alcohol 100 % of control

Nc1ncnc(N)c1NC(=O)c1ccccc1
inactive: dose: 60.0 mg/kg/injection, schedule: Q01DX005 (ip), vehicle: suspension in saline 98 % of control | dose: 120.0 mg/kg/injection, schedule: Q01DX005 (ip), vehicle: suspension in saline 106 % of control

CCC(c1ccccc1)c1noc(CCN(CC)CC)n1 (stereo unspecified)
inactive: [1] 101 % of control | [2] 99 % of control | [3] 113 % of control

CN(C)C(=O)c1ccc(SC(=S)NCc2ccccc2)cc1
inactive: dose: 15.0 mg/kg/injection, schedule: Q01DX005 (ip), vehicle: Klucel (hydroxypropylcellulose) (HPC) 103 % of control | dose: 30.0 mg/kg/injection, schedule: Q01DX005 (ip), vehicle: Klucel (hydroxypropylcellulose) (HPC) 103 % of control | dose: 60.0 mg/kg/injection, schedule: Q01DX005 (ip), vehicle: Klucel (hydroxypropylcellulose) (HPC) 101 % of control and 104 % of control | dose: 120.0 mg/kg/injection, schedule: Q01DX005 (ip), vehicle: Klucel (hydroxypropylcellulose) (HPC) 115 % of control
